Measurements published in ChEMBL document CHEMBL5726833, “Heterocyclic compounds useful as pim kinase inhibitors” (2018).

Tests used:
[1] = biological target: Serine/threonine-protein kinase pim-2 (Homo sapiens, UniProt Q9P1W9); assay: Kinase Assay: Pim-2 kinase assay—20 μL reactions were run in white 384 well polystyrene plates dotted with 0.8 μL compound/DMSO in the assay buffer (50 mM Tris, pH 7.5, 0.01% Tween-20, 5 mM mgCl2, 0.01% BSA, 5 mM DTT), containing 0.05 μM Fluorescein-labeled CREBtide peptide substrate (Invitrogen PV3508), 1 mM ATP, and 1 nM enzyme (Invitrogen PV3649) for 2 h at 25° C. Reactions were stopped by addition of 10 μL TR-FRET Dilution Buffer (Invitrogen PV3574) with 30 mM EDTA and 1.5 nM LanthaScreen Tb-CREB pSer133 antibody (Invitrogen PV3566). After 30 min. incubation at room temperature, plates were read on a PHERAstar FS plate reader (BMG Labtech).
Sequence of Serine/threonine-protein kinase pim-2 (Q9P1W9 whole entry): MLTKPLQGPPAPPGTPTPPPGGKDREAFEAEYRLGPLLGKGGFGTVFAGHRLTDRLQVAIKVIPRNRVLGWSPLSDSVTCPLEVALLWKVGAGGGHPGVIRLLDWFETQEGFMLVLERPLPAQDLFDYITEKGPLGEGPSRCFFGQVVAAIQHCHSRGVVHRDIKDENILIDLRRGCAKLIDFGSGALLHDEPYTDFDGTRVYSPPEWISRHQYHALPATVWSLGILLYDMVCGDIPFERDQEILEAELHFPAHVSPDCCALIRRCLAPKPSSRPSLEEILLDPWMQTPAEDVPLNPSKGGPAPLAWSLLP

[2] = biological target: Serine/threonine-protein kinase pim-1 (Homo sapiens, UniProt P11309); assay: (§1) Enzyme Assay: Pim-1 and Pim-3 kinase assays—20 μL reactions were run in white 384 well polystyrene plates dotted with 0.8 μL compound/DMSO in the assay buffer (50 mM Tris, pH 7.5, 0.01% Tween-20, 5 mM mgCl2, 0.01% BSA, 5 mM DTT), containing 0.05 μM Biotin-labeled BAD peptide substrate (AnaSpec 62269), 1 mM ATP, and 2.5 pM (Pim-1, Invitrogen PV3503) or 1.25 pM (Pim-3, Millipore 14-738) enzyme for 1 h at 25° C. Reactions were stopped by addition of 10 μL STOP Buffer (150 mM Tris, pH=7.5, 150 mM NaCl, 75 mM EDTA, 0.01% Tween-20, 0.3% BSA,) supplemented with Phospho-Bad (Ser112) Antibody (Cell Signaling 9291) diluted 666-fold, and Streptavidin donor beads (PerkinElmer 6760002) along with Protein-A acceptor beads (PerkinElmer 6760137) at […] each. Supplementation of the STOP buffer with beads and stopping the reactions were done under reduced light. Prior to the stopping reactions STOP buffer with beads was preincubated for 1 h in the dark at room temperature. After stopping the reactions, plates were incubated for 1 h in the dark at room temperature before reading on a PHERAstar FS plate reader (BMG Labtech) under reduced light.
Sequence of Serine/threonine-protein kinase pim-1 (P11309 whole entry): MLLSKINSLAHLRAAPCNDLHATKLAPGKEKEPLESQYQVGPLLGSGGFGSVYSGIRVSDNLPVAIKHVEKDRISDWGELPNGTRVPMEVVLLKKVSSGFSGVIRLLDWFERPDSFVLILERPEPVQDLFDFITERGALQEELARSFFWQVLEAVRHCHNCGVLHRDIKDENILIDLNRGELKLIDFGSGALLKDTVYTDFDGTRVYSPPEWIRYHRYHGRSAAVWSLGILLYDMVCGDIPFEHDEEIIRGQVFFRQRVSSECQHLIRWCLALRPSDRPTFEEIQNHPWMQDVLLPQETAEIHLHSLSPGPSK

[3] = biological target: Serine/threonine-protein kinase pim-3 (Homo sapiens, UniProt Q86V86); assay: as §1

`C[C@@H]1C[C@H](N)C[C@H](c2ccncc2NC(=O)c2ccc(F)c3cc(-c4c(F)cccc4F)cnc23)C1` was tested. Which IC50 [1] did it give?
The IC50 was under 0.1 µM.

What about the IC50 [2] of the same compound?
The IC50 was under 0.01 µM.

What about the IC50 [3] of the same compound?
The IC50 was under 0.01 µM.
